This is an account of results in patent US8263636B2, “Dual alanyl aminopeptidase and dipeptidyl peptidase iv inhibitors for functionally influencing different cells and for treating immunological inflammatory, neuronal and other diseases” (IMTM GmbH, priority 2003, dated 2012).

In experiment [1] the test system is dextran sulfate-induced colitis. The experiment in a line: Dextran sulfate-induced colitis of mice. The experiment is classed as in vivo, female Balb/c mice. Conditions: 10 μg single inhibitor i.p. on three successive days from day 5; day 7; insignificant; FIG. 2.
Experiment [2] relates to ovalbumine-induced asthma bronchiale. The experiment in a line: Ovalbumine-induced asthma bronchiale of mice. Type of experiment: in vivo, female Balb/c mice. Conditions: i.p. 0.1 mg of each inhibitor, days 28-35; ovalbumine challenge day 35; FIG. 3A. The procedure: Female Balb/c mice were sensitized for the antigen ovalbumine capable of inducing asthma bronchiale by an intreperitoneal administration of 10 μg ovalbumine on the days 0, 14 and 21. On day 27/28, the animals received a boostering dose of ovalbumine by inhalation [vD3]. After an intreperitoneal administration of the peptidase inhibitors on the days 28-35, there was effected an intranasal ovalbumine challenge on day 35, as well as a check of the allergic premature reaction via the pulmonal function. There were measured: the average expiratory flux (EF50), the tidal volume, the respiration rate and the minute volume as well as the number of eosinophilic granulocytes in the bronchoalveolar lavage. 8 to 10 animals were used per experimental group. By way of example, in FIG. 3A, there is summarized the effect of the peptidase inhibitors on the reduction of the EF50 value.

The target of experiment [3] is dipeptidyl peptidase IV (DPIV) (Homo sapiens, UniProt P27487). The experiment is described as follows: Inhibition of dipeptidyl peptidase IV enzymatic activity, fluorogenic substrate (Ala-Pro)2-rhodamine. Type of experiment: biochemical. The procedure: (§1) The inhibition characteristics measured are referred to as IC-50 values or ID50 values (the lafter marked with “*”) for both enzymes. The enzymatic activity was determined by means of the fluorogenic substrates/products (Ala-Pro)2-rhodamine and (Ala)2-rhodamine.

For experiment [4], the target named is alanyl aminopeptidase (APN) (Homo sapiens, UniProt P15144). The experiment is described as follows: Inhibition of alanyl aminopeptidase enzymatic activity, fluorogenic substrate (Ala)2-rhodamine. The experiment is classed as biochemical. The procedure: as §1
Where [5] appears, read: Table 8, first value of cell, unmarked = IC-50, read-out: IC50 DPIV.
Setting [6] is: second value of cell DPIV/APN, unmarked = IC-50, read-out: IC50 APN.
The mark [7] stands for this setting: first value of cell DPIV/APN, unmarked = IC-50, read-out: IC50 DPIV.
Setting [8] is: second value of cell DPIV/APN, marked * = ID50 value, read-out: ID50 APN (marked with *).

pIC50: −log10 of the molar value. Read-outs that look alike come from different tables or passages of the source.

Chain of alanyl aminopeptidase (APN) (P15144 whole entry, species assumed): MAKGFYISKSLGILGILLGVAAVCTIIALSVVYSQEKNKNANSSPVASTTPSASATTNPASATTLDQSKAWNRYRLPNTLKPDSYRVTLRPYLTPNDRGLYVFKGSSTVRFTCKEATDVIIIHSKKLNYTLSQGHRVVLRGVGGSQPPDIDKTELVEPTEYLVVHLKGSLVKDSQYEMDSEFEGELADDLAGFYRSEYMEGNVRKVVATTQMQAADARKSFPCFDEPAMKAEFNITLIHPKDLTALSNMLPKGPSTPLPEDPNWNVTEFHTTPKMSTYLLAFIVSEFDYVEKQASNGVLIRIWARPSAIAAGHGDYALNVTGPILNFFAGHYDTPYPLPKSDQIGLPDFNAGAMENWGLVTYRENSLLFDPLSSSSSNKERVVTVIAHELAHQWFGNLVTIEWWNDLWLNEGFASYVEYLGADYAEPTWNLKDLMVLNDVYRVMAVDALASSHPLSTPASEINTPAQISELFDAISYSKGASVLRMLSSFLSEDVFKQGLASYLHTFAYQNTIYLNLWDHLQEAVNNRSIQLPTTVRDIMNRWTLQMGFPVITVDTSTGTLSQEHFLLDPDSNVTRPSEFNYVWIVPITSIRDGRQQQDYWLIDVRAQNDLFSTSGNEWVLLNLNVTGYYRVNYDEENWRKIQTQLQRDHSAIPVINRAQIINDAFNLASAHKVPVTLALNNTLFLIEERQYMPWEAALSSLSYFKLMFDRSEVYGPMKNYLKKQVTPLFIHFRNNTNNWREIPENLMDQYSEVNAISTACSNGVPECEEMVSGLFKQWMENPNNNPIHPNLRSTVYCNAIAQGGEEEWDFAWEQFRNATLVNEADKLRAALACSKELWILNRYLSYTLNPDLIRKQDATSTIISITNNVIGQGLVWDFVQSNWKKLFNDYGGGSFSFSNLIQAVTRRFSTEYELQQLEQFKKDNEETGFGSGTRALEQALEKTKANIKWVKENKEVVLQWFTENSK
Chain of dipeptidyl peptidase IV (DPIV) (P27487 whole entry, species assumed): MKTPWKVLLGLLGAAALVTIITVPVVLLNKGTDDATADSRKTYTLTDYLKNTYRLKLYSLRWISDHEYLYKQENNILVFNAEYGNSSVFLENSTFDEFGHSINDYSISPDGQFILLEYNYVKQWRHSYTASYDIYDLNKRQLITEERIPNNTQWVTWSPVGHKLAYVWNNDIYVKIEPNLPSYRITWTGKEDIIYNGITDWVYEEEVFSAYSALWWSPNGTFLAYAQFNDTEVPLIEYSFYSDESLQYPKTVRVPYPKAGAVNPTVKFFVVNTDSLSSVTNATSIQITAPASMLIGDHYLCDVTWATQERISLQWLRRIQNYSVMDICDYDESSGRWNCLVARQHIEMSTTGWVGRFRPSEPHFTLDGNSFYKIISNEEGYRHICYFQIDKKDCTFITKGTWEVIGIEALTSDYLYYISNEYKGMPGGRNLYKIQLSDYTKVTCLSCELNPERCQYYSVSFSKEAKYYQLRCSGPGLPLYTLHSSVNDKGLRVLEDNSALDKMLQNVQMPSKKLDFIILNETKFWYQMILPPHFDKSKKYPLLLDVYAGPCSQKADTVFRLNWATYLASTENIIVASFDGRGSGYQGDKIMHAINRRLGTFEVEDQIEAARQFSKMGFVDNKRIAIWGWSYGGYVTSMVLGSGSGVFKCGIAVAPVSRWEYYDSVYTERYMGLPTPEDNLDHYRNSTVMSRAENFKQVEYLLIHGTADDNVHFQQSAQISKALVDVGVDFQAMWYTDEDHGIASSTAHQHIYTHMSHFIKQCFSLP

As for `N[C@@H](CCCCNC(=O)OCc1ccc([N+](=O)[O-])cc1)C(=O)N1CCCC1` [Lys[Z(NO2)] pyrrolidide], the “reduction of the heaviness of the disease (score)” value in experiment [1] was −12.3%. The “effect on the reduction of the average expiratory flux (EF50)” value in experiment [2] was “showed a therapeutic effect”.

For `Cc1ccc(C)n1-c1cccc(C(=O)N/N=C/c2cc(Br)c(O)c(Br)c2)c1` [Compound C2.007], the pIC50 in experiment [3] (read-out: IC50 DPIV) was 4.39.

As for `COc1ccc(C(=O)N/N=C\c2cc(Br)c(O)c(O)c2Br)cc1` [Compound C2.013], the pIC50 in experiment [3] (first value of cell DPIV/APN, marked * = ID50 value, read-out: ID50 DPIV (marked with *)) is 4.03.

Consider `CN(C)CCNc1nc2c(c(=O)n(C)c(=O)n2C)n1Cc1ccccc1Cl` [Compound C8.002], for which, in experiment [4] (Table 8, second value of cell, unmarked = IC-50), the “IC50 APN” value is reported as 7.5/Inactive.

`C=CCN1C(=O)C(C#N)=C(C)/C(=C\c2ccc(-c3cc(C)c(C)cc3[N+](=O)[O-])o2)C1=O` [Compound C8.012]: in experiment [3] (setting [5]), the pIC50 was 4.18.

In the case of `Cc1[nH]c2ccccc2c1C(c1ccccn1)N1CCN(c2ccccn2)CC1` (centres unmarked) [Compound C4.008], the pIC50 in experiment [4] (setting [6]) was 4.55; in experiment [3] (setting [7]), 4.35.

For the compound `CCCCC[C@H](CC(=O)NO)C(=O)N[C@H](C(=O)N1CCC[C@H]1CO)C(C)C` [actinonine], the “reduction of the heaviness of the disease (score)” value in experiment [1] is recorded as −16.5%. The “effect on the reduction of the average expiratory flux (EF50)” value in experiment [2] is “showed a therapeutic effect”.

As for `COc1ccc(N2C(=O)c3ccc(Oc4ccc(N5C(=O)c6ccc(C(=O)O)cc6C5=O)cc4)cc3C2=O)cc1` [Compound C12.001], the figures for the pIC50 in experiment [4] (setting [6]) and in experiment [3] (setting [7]) were 4.83 and 4.69, respectively.

With `CCOC(=O)C(NC(=O)c1ccc(OC)cc1)(N1CCOCC1)C(F)(F)F` (centres unmarked) [Compound C8.017], the pIC50 in experiment [4] (Table 8, second value of cell, unmarked = IC-50, read-out: IC50 APN) was 4.04.

Regarding `Cc1ccc(/C=N/NC(=O)c2cccc(I)c2)o1` [Compound C2.010], the pIC50 in experiment [3] (read-out: IC50 DPIV) was 4.24.

Turning to `O=C(N/C(=C\c1ccco1)C(=O)N1CCCC(CO)C1)c1ccccc1` (centres unmarked) [Compound C9.006], the pIC50 in experiment [3] (setting [7]) was 3.82.

For the compound `COc1ccc(OCC(=O)N/N=C/c2cc(Br)c(O)c(O)c2Br)c(Br)c1` [Compound C2.005], in experiment [3] (setting [7]), the pIC50 was 4.39.

For the compound `CCOC(=O)C(NC(=O)c1cccc(Cl)c1)(Nc1ccccc1OC)C(F)(F)F` (centres unmarked) [Compound C7.001], the pIC50 in experiment [4] (setting [6]) was 4.66; in experiment [3] (setting [7]) it was 4.72.

Turning to `CCOC(=O)C(NC(=O)c1ccc(OC)cc1)(N1CCOCC1)C(F)(F)F` (centres unmarked) [Compound C7.003], the pIC50 in experiment [4] (setting [6]) was 4.04.

As to `COC(=O)C1=c2s/c(=C\c3ccc(C)cc3)c(=O)n2C(N)=C(S(=O)(=O)c2ccccc2)C1c1ccc(C)cc1` (centres unmarked) [Compound C16.011], the pIC50 in experiment [3] (setting [7]) is 3.94.

`Cc1[nH]c2ccccc2c1C(c1cccs1)N1CCC(C(N)=O)CC1` (centres unmarked) [Compound C4.014]: the pIC50 in experiment [4] (setting [6]) was 4.32; in experiment [3] (setting [7]), 4.21.

For `Cc1[nH]c2ccccc2c1C(c1cccs1)N1CCCCC1` (centres unmarked) [Compound C4.017], the pIC50 in experiment [4] (setting [6]) is 4.51; in experiment [3] (setting [7]), 4.17.

As for `O=C(N/N=C/c1cc(Br)cc(Br)c1OC(=O)c1ccccc1)/C(=C/c1ccc2c(c1)OCO2)NC(=O)c1ccccc1` [Compound C4.006], the pIC50 in experiment [3] (setting [7]) is 4.41.

Take `Cc1[nH]c2ccccc2c1C(c1ccccn1)N1CCOCC1` (centres unmarked) [Compound C4.012]: the pIC50 is 4.44 in experiment [4] (setting [6]) and 4.23 in experiment [3] (setting [7]).

In the case of `CCOC(=O)C1=c2s/c(=C\c3cccs3)c(=O)n2C(N)=C(S(=O)(=O)c2ccccc2)C1c1cccs1` (centres unmarked) [Compound C16.008], the pIC50 in experiment [3] (setting [7]) was 3.86.

For `CCOC(=O)C(NC(=O)c1ccc(OC)cc1)(N1CCCC1=O)C(F)(F)F` (centres unmarked) [Compound C7.002], the pIC50 in experiment [3] (setting [7]) was 4.60.

Turning to `Cc1[nH]c2ccccc2c1C(c1ccccn1)N1CCC(C(N)=O)CC1` (centres unmarked) [Compound C4.010], the pIC50 was 4.38 in experiment [4] (setting [6]) and 4.27 in experiment [3] (setting [7]).

With `Cc1[nH]c2ccccc2c1C(c1cccs1)N1CCCC1` (centres unmarked) [Compound C4.019], the figures for the pIC50 in experiment [4] (setting [6]) and in experiment [3] (setting [7]) were 4.46 and 4.24, respectively.

In experiment [3], `COc1cc(C)[n+](OC(=O)N(C)C)c(C)c1` [Compound C8.021] gave a pIC50 of 3.92.

As for `CC(C)OC(=O)C1=C(N)N2C(=O)CSC2=C(C(=O)OC(C)C)C1` [Compound C16.007], the results for the pIC50 in experiment [4] (setting [6]) and in experiment [3] (setting [7]) were 4.12 and 4.10, respectively.

For `CCOC(=O)C1CCN(C(c2ccccn2)c2c(C)[nH]c3ccccc23)CC1` (centres unmarked) [Compound C4.007], the pIC50 in experiment [4] (setting [6]) and in experiment [3] (setting [7]) was 4.49 in each case.

Take `COC(=O)C1=C(N)N2C(=O)CSC2=C(C(=O)OC(C)C)C1` [Compound C10.003]: the pIC50 in experiment [3] (setting [7]) was 4.97.

For `O=C(N/C(=C\c1ccco1)C(=O)N1CCCC(CO)C1)c1ccccc1` (centres unmarked) [Compound C8.020], in experiment [3] (Table 8, first value of cell, marked * = ID50 value, read-out: ID50 DPIV (marked with *)), the pIC50 is 3.82.

As to `COC(=O)C1=c2s/c(=C\c3ccco3)c(=O)n2C(N)=C(S(=O)(=O)c2ccccc2)C1c1ccco1` (centres unmarked) [Compound C16.010], the pIC50 in experiment [4] (setting [6]) is 4.00.

Consider `COc1ccc(C(c2c(C)[nH]c3ccccc23)N2CCCC2)cc1` (centres unmarked) [Compound C4.016], for which the results for the pIC50 in experiment [4] (setting [6]) and in experiment [3] (setting [7]) were 4.52 and 4.31, respectively.

For `Cc1[nH]c2ccccc2c1C(c1cccs1)N1CCOCC1` (centres unmarked) [Compound C4.018], the pIC50 was 4.49 in experiment [4] (setting [6]) and 4.21 in experiment [3] (setting [7]).

Take `CCOC(=O)N1CCN(C(c2cccs2)c2c(C)[nH]c3ccccc23)CC1` (centres unmarked) [Compound C4.015]: the figures for the pIC50 in experiment [4] (setting [6]) and in experiment [3] (setting [7]) were 4.60 and 4.31, respectively.

`COC(=O)C1=C(N)N2C(=O)CSC2=C(C(=O)OC(C)C)C1` [Compound C16.001]: the pIC50 is 5.16 in experiment [4] (setting [6]) and 4.97 in experiment [3] (setting [7]).

With `Cc1[nH]c2ccccc2c1C(c1ccccn1)N1CCN(c2ccc(F)cc2)CC1` (centres unmarked) [Compound C4.009], the results for the pIC50 in experiment [4] (setting [6]) and in experiment [3] (setting [7]) were 4.12 and 4.02, respectively.

As to `Cc1[nH]c2ccccc2c1C(c1ccccn1)N1CCCC1` (centres unmarked) [Compound C4.011], the pIC50 in experiment [3] (setting [7]) was 3.77.

`Cc1[nH]c2ccccc2c1C(c1ccccn1)N1CCCCC1` (centres unmarked) [Compound C4.013]: the results for the pIC50 in experiment [4] (setting [6]) and in experiment [3] (setting [7]) were 4.11 and 4.13, respectively.

With `COc1ccc(C(=O)N/N=C/c2cc(O)c(O)c(Br)c2Br)cc1` [Compound C2.012], the pIC50 in experiment [4] (setting [8]) was 4.47.

As to `COC(=O)C1=c2s/c(=C\c3cccc(OC)c3)c(=O)n2C(N)=C(S(=O)(=O)c2ccccc2)C1c1cccc(OC)c1` (centres unmarked) [Compound C16.009], the pIC50 in experiment [3] (setting [7]) was 3.85.

`COc1cc(Br)c(OCC(=O)N/N=C/c2cc(Br)c(O)c(O)c2Br)c(Br)c1` [Compound C2.003]: the pIC50 in experiment [4] (setting [8]) is 5.27.

Regarding `COc1ccccc1N1C(=O)c2ccc(Oc3ccc(NC(=O)CCS(=O)(=O)c4ccc(C)cc4)cc3)cc2C1=O` [Compound C10.015], the pIC50 in experiment [4] (setting [6]) is 4.57; in experiment [3] (setting [7]) it was 4.00.

With `CCOC(=O)C(NC(=O)c1ccccc1)(N1CCOCC1)C(F)(F)F` (centres unmarked) [Compound C7.004], the pIC50 in experiment [4] (setting [8]) is 3.73.

As for `COC(=O)C1=C(N)N2C(=O)CSC2=C(C(=O)OC(C)C)C1` [Compound C8.003], the pIC50 in experiment [3] (setting [5]) is 4.97.

Take `Cc1[nH]c2ccccc2c1C(c1cc(Cl)ccc1O)N1CCOCC1` (centres unmarked) [Compound C4.002]: in experiment [4] (setting [6]), the pIC50 was 4.93.
